Laboratory results reported in the supplement of paper PMC10307832.

Key:
Experiment in all cases: relative viability (nuclei count vs DMSO), 5 days (fraction); higher = more cells survive
[1] = test system: UMC-11
How it was run: (§1)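 Relative viability divides the nuclei count in treated wells by that in vehicle wells. Lung cancer cell lines were seeded in 1536-well plates, dosed by pin tool the next day, and fixed and stained after 5 days in one step with final 0.05% Triton X-100, 1% formaldehyde and 1 ug/ml Hoechst. Dosing was a single drug or a fixed anchor-drug dose plus five library-drug doses (not always all listed) in √10 steps, and values are medians of duplicate plates imaged at 4×.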

[2] = test system: NCI-H2087
How it was run: as §1

[3] = test system: NCI-H3122
How it was run: as §1

[4] = test system: NCI-H2170
How it was run: as §1

[5] = test system: NCI-H1395
How it was run: as §1

[6] = test system: NCI-H1651
How it was run: as §1

[7] = test system: PC-3 [JPC-3]
How it was run: as §1

[8] = test system: NCI-H1793
How it was run: as §1

[9] = test system: ABC-1
How it was run: as §1

[10] = test system: CAL-12T
How it was run: as §1

[11] = test system: RERF-LC-KJ
How it was run: as §1

[12] = test system: NCI-H1755
How it was run: as §1

[13] = test system: NCI-H1944
How it was run: as §1

[14] = test system: LOU-NH91
How it was run: as §1

[15] = test system: LU99A
How it was run: as §1

[16] = test system: NCI-H460
How it was run: as §1

[17] = test system: LC-2-ad
How it was run: as §1

[18] = test system: HCC-366
How it was run: as §1

[19] = test system: NCI-H2405
How it was run: as §1

[20] = test system: HCC-78
How it was run: as §1

[21] = test system: NCI-H2228
How it was run: as §1

`CC(=O)O[C@@]12CO[C@@H]1C[C@H](O)[C@@]1(C)C(=O)[C@H](O)C3=C(C)[C@@H](OC(=O)[C@H](O)[C@@H](NC(=O)OC(C)(C)C)c4ccccc4)C[C@@](O)([C@@H](OC(=O)c4ccccc4)[C@H]21)C3(C)C` [Docetaxel] + Cc1nc(NC(=O)N2CCC[C@H]2C(N)=O)sc1-c1ccnc(C(C)(C)C(F)(F)F)c1 [Alpelisib] (partner 2 µM) was tested, and the relative viability ([1]; first compound 0.0002 µM) was 0.963, the relative viability ([1]; first compound 0.000632 µM) was 0.841 and the relative viability ([1]; first compound 0.002 µM) was 0.195. The relative viability ([1]; first compound 0.006325 µM) was 0.176, the relative viability ([1]; first compound 0.02 µM) was 0.153 and the relative viability ([2]; first compound 0.0002 µM) was 0.916. It also gave a relative viability ([2]; first compound 0.000632 µM) of 0.753, a relative viability ([2]; first compound 0.002 µM) of 0.253 and a relative viability ([2]; first compound 0.006325 µM) of 0.193. The relative viability ([2]; first compound 0.02 µM) was 0.15, the relative viability ([3]; first compound 0.0002 µM) was 0.719 and the relative viability ([3]; first compound 0.000632 µM) was 0.753. For the same compound, the relative viability ([3]; first compound 0.002 µM) was 0.764, the relative viability ([3]; first compound 0.006325 µM) was 0.318 and the relative viability ([3]; first compound 0.02 µM) was 0.186. The relative viability ([4]; first compound 0.0002 µM) was 0.83, the relative viability ([4]; first compound 0.000632 µM) was 0.632 and the relative viability ([4]; first compound 0.002 µM) was 0.451. It also gave a relative viability ([4]; first compound 0.006325 µM) of 0.228, a relative viability ([4]; first compound 0.02 µM) of 0.175 and a relative viability ([5]; first compound 0.0002 µM) of 1. It also gave a relative viability ([5]; first compound 0.000632 µM) of 1.02, a relative viability ([5]; first compound 0.002 µM) of 1.35 and a relative viability ([5]; first compound 0.006325 µM) of 0.638. It also gave a relative viability ([5]; first compound 0.02 µM) of 0.307, a relative viability ([6]; first compound 0.0002 µM) of 0.811 and a relative viability ([6]; first compound 0.000632 µM) of 0.944. For the same compound, the relative viability ([6]; first compound 0.002 µM) was 0.248, the relative viability ([6]; first compound 0.006325 µM) was 0.108 and the relative viability ([6]; first compound 0.02 µM) was 0.111. The relative viability ([7]; first compound 0.0002 µM) was 1.02, the relative viability ([7]; first compound 0.000632 µM) was 1.07 and the relative viability ([7]; first compound 0.002 µM) was 0.781. For the same compound, the relative viability ([7]; first compound 0.006325 µM) was 0.279, the relative viability ([7]; first compound 0.02 µM) was 0.167 and the relative viability ([8]; first compound 0.0002 µM) was 0.796. The relative viability ([8]; first compound 0.000632 µM) was 0.642, the relative viability ([8]; first compound 0.002 µM) was 0.41 and the relative viability ([8]; first compound 0.006325 µM) was 0.309. It also gave a relative viability ([8]; first compound 0.02 µM) of 0.222, a relative viability ([9]; first compound 0.0002 µM) of 0.826 and a relative viability ([9]; first compound 0.000632 µM) of 1.07. The relative viability ([9]; first compound 0.002 µM) was 0.493, the relative viability ([9]; first compound 0.006325 µM) was 0.464 and the relative viability ([9]; first compound 0.02 µM) was 0.337. The relative viability ([10]; first compound 0.0002 µM) was 1.06, the relative viability ([10]; first compound 0.000632 µM) was 0.699 and the relative viability ([10]; first compound 0.002 µM) was 0.201. For the same compound, the relative viability ([10]; first compound 0.02 µM) was 0.154, the relative viability ([11]; first compound 0.0002 µM) was 0.801 and the relative viability ([11]; first compound 0.000632 µM) was 0.712. It also gave a relative viability ([11]; first compound 0.002 µM) of 0.38, a relative viability ([11]; first compound 0.006325 µM) of 0.235 and a relative viability ([11]; first compound 0.02 µM) of 0.172. For the same compound, the relative viability ([12]; first compound 0.0002 µM) was 0.871, the relative viability ([12]; first compound 0.000632 µM) was 0.792 and the relative viability ([12]; first compound 0.002 µM) was 0.434. The relative viability ([12]; first compound 0.006325 µM) was 0.326, the relative viability ([12]; first compound 0.02 µM) was 0.262 and the relative viability ([13]; first compound 0.0002 µM) was 0.751. It also gave a relative viability ([13]; first compound 0.000632 µM) of 0.761, a relative viability ([13]; first compound 0.002 µM) of 0.728 and a relative viability ([13]; first compound 0.006325 µM) of 0.259. For the same compound, the relative viability ([13]; first compound 0.02 µM) was 0.122, the relative viability ([14]; first compound 0.0002 µM) was 0.73 and the relative viability ([14]; first compound 0.000632 µM) was 0.737. It also gave a relative viability ([14]; first compound 0.002 µM) of 0.565, a relative viability ([14]; first compound 0.006325 µM) of 0.394 and a relative viability ([14]; first compound 0.02 µM) of 0.368. It also gave a relative viability ([15]; first compound 0.0002 µM) of 0.499, a relative viability ([15]; first compound 0.000632 µM) of 0.342 and a relative viability ([15]; first compound 0.002 µM) of 0.299. It also gave a relative viability ([15]; first compound 0.006325 µM) of 0.184, a relative viability ([15]; first compound 0.02 µM) of 0.139 and a relative viability ([16]; first compound 0.0002 µM) of 0.303. It also gave a relative viability ([16]; first compound 0.000632 µM) of 0.185, a relative viability ([16]; first compound 0.002 µM) of 0.016 and a relative viability ([16]; first compound 0.006325 µM) of 0.0118. For the same compound, the relative viability ([16]; first compound 0.02 µM) was 0.0069, the relative viability ([17]; first compound 0.0002 µM) was 0.538 and the relative viability ([17]; first compound 0.000632 µM) was 0.174. The relative viability ([17]; first compound 0.002 µM) was 0.166, the relative viability ([17]; first compound 0.006325 µM) was 0.11 and the relative viability ([17]; first compound 0.02 µM) was 0.0967. For the same compound, the relative viability ([18]; first compound 0.0002 µM) was 0.331, the relative viability ([18]; first compound 0.000632 µM) was 0.311 and the relative viability ([18]; first compound 0.002 µM) was 0.0519. For the same compound, the relative viability ([18]; first compound 0.006325 µM) was 0.0149, the relative viability ([18]; first compound 0.02 µM) was 0.0109 and the relative viability ([19]; first compound 0.0002 µM) was 0.894. The relative viability ([19]; first compound 0.000632 µM) was 0.677, the relative viability ([19]; first compound 0.002 µM) was 0.467 and the relative viability ([19]; first compound 0.006325 µM) was 0.448. It also gave a relative viability ([19]; first compound 0.02 µM) of 0.288, a relative viability ([20]; first compound 0.0002 µM) of 0.338 and a relative viability ([20]; first compound 0.000632 µM) of 0.279. It also gave a relative viability ([20]; first compound 0.002 µM) of 0.255, a relative viability ([20]; first compound 0.006325 µM) of 0.24 and a relative viability ([20]; first compound 0.02 µM) of 0.175. The relative viability ([21]; first compound 0.0002 µM) was 0.329, the relative viability ([21]; first compound 0.000632 µM) was 0.243 and the relative viability ([21]; first compound 0.002 µM) was 0.232. The relative viability ([21]; first compound 0.006325 µM) was 0.151 and the relative viability ([21]; first compound 0.02 µM) was 0.118.
